Reference: patent US7713956B2, “Dealkylated derivatives of pyrrolo[2,1-b]benzothiazepines with atypical antipsychotic activity” (Sigma-Tau Industrie Farmaceutiche Riunite S.p.A., priority 2004, dated 2010)
Values joined by “and” are separate entries in the source; they are usually repeats but may differ in a detail not shown here. Equal values may be shown once.

Tests used:
[1] = test system: Male Fischer 344 rats; test: Active Avoidance Test (conditioned avoidance response), oral treatment; assay type: in vivo, rat; conditions: for ED50 / effect on avoidance responses: oral; for ED50: 60 minutes prior to the test, rat, avoidance rate variable, read-out: ED50 (dose reducing avoidance responses by 50% compared to basal values); for effect on avoidance responses: over the active doses tested (ST1469 0.75-6 mg/kg; ST2087 2-8 mg/kg; ST2472 0.5-2 mg/kg)
Text: Evaluation of the Antipsychotic Potency of ST1469 and ST1899 and their Respective Desmethyl Derivatives ST2087 and ST2472. Effect of Treatment in the Active Avoidance Test.
The administration of incremental doses of an antipsychotic drug in the rat causes the inhibition of the avoidance response and an increase in the number of escape responses without any increase in non-responses (failures). This modification of the avoidance behaviour of the animals is characteristic of the effect of the administration of a compound with antipsychotic activity, which selectively blocks the conditioned response within given dosage ranges. This behavioural assessment makes it possible to detect and determine the antipsychotic capacity of a product.
Male Fischer 344 rats weighing 180 g (Charles River) were used. The products ST1469 and ST2087 were administered to the animals orally, 60 minutes prior to the test. The product ST1469 was administered at doses of 0.75 mg/5 ml/kg (1.84 μmol/kg), 1.5 mg/5 ml/kg (3.69 μmol/kg), 3 mg/5 ml/kg (7.37 μmol/kg), and 6.0 mg/5 ml/kg (14.7 μmol/kg).
For the product ST2087 the following doses were used: 2 mg/5 ml/kg (6.25 μmol/kg), 3 mg/5 ml/kg (9.38 μmol/kg), 4 mg/5 ml/kg (12.50 μmol/kg), 6 mg/5 ml/kg ([…]) and 8 mg/5 ml/kg (25.01 μmol/kg).
To perform the avoidance behaviour assessment test, a piece of equipment (Ugo Basile) was used consisting of a plastic cage divided into two compartments by a partition wall with an opening in it allowing communication between the two sectors. Each of the two sectors can be illuminated by a 10-Watt lamp placed above a plexiglass cover covering the cage. A programming device permits the regulation of the duration and frequency of the un-conditioned and discriminatory stimuli, and a computerised system acquires the experimental data. During the study the discriminatory stimulus (light was delivered 3 seconds prior to the unconditioned stimulus (0.3 mA electric shock for 4 seconds). One test per minute was performed in each session making a total of 20 tests per day. One session per day administered.
The procedure consists in a 1 minute period of familiarisation of the rats in the test cage, followed by the series of tests the start of which is signalled by the light stimulus; the discriminatory stimulus is followed, a few seconds later, by the administration of an electric shock. The rats can avoid the shock by escaping into the adjoining compartment. The responses produced after switching on the light and before the electric shock interrupt the discriminatory stimulus and are considered “avoidances”; the responses produced during the shock period terminate both the discriminatory stimulus and the unconditioned stimulus and are considered “escapes”; non-avoidances are considered “failures”.
Prior to the treatment with the study compounds, the animals were selected in relation to their ability to acquire the task. Admitted to the test assessing the effect of treatment were those rats that produced at least 75% of avoidances in the basal tests.
The results were expressed as means and standard errors. On the basis of the number of conditioned responses (avoidances), the dose of product capable of reducing the value of this variable by 50% (ED50) compared to basal values was calculated by means of non-linear regression using the GraphPad Prism data analysis program.

[2] = Pharmacokinetics after oral administration of a 60 μmol/kg dose in the rat; assay type: in vivo
Text: Pharmacokinetics of the Compound ST1469 and its Corresponding Des Methyl Derivative ST2087
Effect of the Oral Administration of a 60 μmol/kg Dose of Each Product in the Rat
Administration of ST1469 in the Rat (Table 1).
Administration of ST2087 in the Rat (Table 1)

[3] = In vitro metabolic stability / metabolic profile in rat hepatic microsomes; assay type: in vitro ADME, Rat (Sprague Dawley); conditions: for metabolic profile (metabolites formed): rat hepatic microsomes 0.5 mg/ml, 10 μg/ml test item, 37° C. up to 120 minutes
Description: (§1) In this study the metabolic profiles of ST1899 and its metabolite ST2472 were determined in rat, mouse and monkey microsomes.
(§2) ST1899 and ST2472 were separately incubated with the hepatic microsomes. Separate experiments were carried out for each animal species investigated. For each experiment, in addition to the test item, 7-ethoxycoumarin (Sigma-Aldrich) was also incubated as a probe for evaluating the metabolic activity of the microsomes: 7-hydroxycoumarin was identified on the basis of the retention times in comparison with those of synthesized standard and used as marker of oxidative metabolism Both the test item and the 7-ethoxycoumarin were incubated at 37° C. up to 120 minutes.
(§3) MgCl2, β-D-glucose-6-phosphate, βNADP and Glucose-6-phosphate dehydrogenase were used for preparing the NADPH regenerating solution (NRS). 250 μl of 0.1 M pH 7.4 KH2PO4 buffer, 100 μl of NRS and 50 μl of test item (or 7-ethoxycoumarin) standard solution were added to 2 ml Eppendorf test tubes. In the samples, incubated either without microsomes or test items, an equal volume of 0.1 M pH 7.4 KH2PO4 buffer was added.
(§4) The reaction was started by adding 100 μl of the microsomal suspension to the samples and stopped at selected times by adding 500 μl of methanol. Samples were shaken and centrifuged at 8000 RPM for 10 minutes at 4° C. Supernatants were used for the HPLC analysis. 7-ethoxycoumarin, ST1899 and ST2472 were analyzed according to the HPLC methods described below.

[4] = In vitro metabolic stability / metabolic profile in monkey hepatic microsomes; assay type: in vitro ADME, Monkey (Cynomolgus); conditions: for metabolic profile (metabolites formed): monkey hepatic microsomes 0.5 mg/ml, 10 μg/ml test item, 37° C. up to 120 minutes
Description: as §1, §2, §3, §4

[5] = In vitro metabolic stability / metabolic profile in mouse hepatic microsomes; assay type: in vitro ADME, Mouse (CD1); conditions: for metabolic profile (metabolites formed): mouse hepatic microsomes 0.5 mg/ml, 10 μg/ml test item, 37° C. up to 120 minutes
Description: as §1, §2, §3, §4

[6] = 60 umol/kg, analyte = administered product, oral 60 μmol/kg, rat, plasma, mean

AUC [2, 6]	Cmax [2, 6]	half-life [2, 6]	Tmax ([2]; rat, plasma, po, 60 umol/kg, analyte = administered product, oral 60 μmol/kg, mean)	metabolic profile (metabolites formed) [3]	metabolic profile (metabolites formed) [5]	metabolic stability compared with ST1899 ([3]; rat hepatic microsomes)	metabolic stability compared with ST1899 ([4]; monkey hepatic microsomes)	metabolic stability compared with ST1899 ([5]; mouse hepatic microsomes)	SMILES	ED50 [1]	effect on avoidance responses [1]	concentrations at the systemic level when administered as such ([2]; oral ST2087 60 μmol/kg versus ST2087 formed after ST1469, rat)	metabolic profile (metabolites formed) [4]	effect on behaviour of the animals ([1]; ST2472 at 0.25 mg/kg (0.88 μmol/kg))
32.2 µM·h	4.09 µM	4.4 h	≤ 2 h						Clc1ccc2c(c1)C(N1CCNCC1)Cn1cccc1S2 (racemic) [ST2087, (±)-7-chloro-9-(piperazin-1-yl)-9,10-dihydropyrrolo[2,1-b][1,3]-benzothiazepine]	3.27 mg/kg and 10.2 µmol/kg	capable of reducing the production of avoidance responses	much higher concentrations than those measured after its formation as a result of administration of ST1469		
				extensively metabolized to ST2472	metabolized mainly to M1				CN1CCN(C2=Cn3cccc3Sc3ccccc32)CC1 [ST1899, 9-(4-methylpiperazin-1-yl)-pyrrolo[2,1-b]-[1,3]benzothiazepine, reference compound]	1.09 mg/kg and 3.66 µmol/kg			metabolized to ST2472 and to the metabolites M3 and M4	
				almost exclusively metabolized to M2	metabolized almost exclusively to M2	metabolically more stable than ST1899	metabolically more stable than ST1899	metabolically more stable than ST1899	C1=C(N2CCNCC2)c2ccccc2Sc2cccn21 [ST2472, 9-Piperazin-1-yl-pyrrolo[2,1-b][1,3]benzothiazepine]	1.43 mg/kg and 5.05 µmol/kg	causes a progressive reduction of the avoidance responses and an increase in escapes		the main metabolite obtained was M3	does not significantly modify the behaviour of the animals
